What was measured:
[1] = The drug is tested on Bifidobacterium breve strain: DSM20213 for biotransformation. The drug concentrations were measured before and after a 12-h incubation by liquid-chromatography-coupled mass spectrometry (LC–MS); conditions: 2 µM
[2] = The drug is tested on Bacteroides coprophilus strain: DSM18228 for biotransformation. The drug concentrations were measured before and after a 12-h incubation by liquid-chromatography-coupled mass spectrometry (LC–MS); conditions: 2 µM
[3] = The drug is tested on Bacteroides fragilis strain: ATCC43859 for biotransformation. The drug concentrations were measured before and after a 12-h incubation by liquid-chromatography-coupled mass spectrometry (LC–MS); conditions: 2 µM
[4] = The drug is tested on Bacteroides ovatus strain: ATCC8483 for biotransformation. The drug concentrations were measured before and after a 12-h incubation by liquid-chromatography-coupled mass spectrometry (LC–MS); conditions: 2 µM
[5] = The drug is tested on Bacteroides uniformis strain: ATCC8492 for biotransformation. The drug concentrations were measured before and after a 12-h incubation by liquid-chromatography-coupled mass spectrometry (LC–MS); conditions: 2 µM
[6] = The drug is tested on Odoribacter splanchnicus strain: fecal isolate for biotransformation. The drug concentrations were measured before and after a 12-h incubation by liquid-chromatography-coupled mass spectrometry (LC–MS); conditions: 2 µM
[7] = The drug is tested on Blautia hansenii strain: DSM20583 for biotransformation. The drug concentrations were measured before and after a 12-h incubation by liquid-chromatography-coupled mass spectrometry (LC–MS); conditions: 2 µM
[8] = The drug is tested on Clostridium sp. strain: fecal isolate for biotransformation. The drug concentrations were measured before and after a 12-h incubation by liquid-chromatography-coupled mass spectrometry (LC–MS); conditions: 2 µM
[9] = The drug is tested on Enterococcus faecalis strain: V583 for biotransformation. The drug concentrations were measured before and after a 12-h incubation by liquid-chromatography-coupled mass spectrometry (LC–MS); conditions: 2 µM
[10] = The drug is tested on Eubacterium hallii strain: DSM3353 for biotransformation. The drug concentrations were measured before and after a 12-h incubation by liquid-chromatography-coupled mass spectrometry (LC–MS); conditions: anaerobutyricum hallii, 2 µM
[11] = The drug is tested on Eubacterium ventriosum strain: ATCC27560 for biotransformation. The drug concentrations were measured before and after a 12-h incubation by liquid-chromatography-coupled mass spectrometry (LC–MS); assay type: ADME; design: dose 2 uM, timepoint 0 vs 12 hours; conditions: 2 µM
[12] = The drug is tested on Escherichia coli strain: BW25113 for biotransformation. The drug concentrations were measured before and after a 12-h incubation by liquid-chromatography-coupled mass spectrometry (LC–MS); conditions: 2 µM
[13] = bifidobacterium adolescentis, 12 h, 2 µM
Description: The drug is tested on Bifidobacterium adolescentis strain: ATCC 15703 for biotransformation. The drug concentrations were measured before and after a 12-h incubation by liquid-chromatography-coupled mass spectrometry (LC–MS)

[14] = bacteroides fragilis, 12 h, 2 µM
Description: The drug is tested on Bacteroides fragilis strain: 3397 (T10) for biotransformation. The drug concentrations were measured before and after a 12-h incubation by liquid-chromatography-coupled mass spectrometry (LC–MS)

[15] = segatella copri, 12 h, 2 µM
Description: The drug is tested on Prevotella copri strain: DSM18205 for biotransformation. The drug concentrations were measured before and after a 12-h incubation by liquid-chromatography-coupled mass spectrometry (LC–MS)

[16] = limosilactobacillus reuteri cf48-3a, 12 h, 2 µM
Description: The drug is tested on Lactobacillus reuteri CF48-3A strain: BEI HM-102 for biotransformation. The drug concentrations were measured before and after a 12-h incubation by liquid-chromatography-coupled mass spectrometry (LC–MS)

[17] = roseburia intestinalis, 12 h, 2 µM
Description: The drug is tested on Roseburia intestinalis strain: L1-82 for biotransformation. The drug concentrations were measured before and after a 12-h incubation by liquid-chromatography-coupled mass spectrometry (LC–MS)

[18] = akkermansia muciniphila, 12 h, 2 µM
Description: The drug is tested on Akkermansia muciniphila strain: ATCC BAA-835 for biotransformation. The drug concentrations were measured before and after a 12-h incubation by liquid-chromatography-coupled mass spectrometry (LC–MS)

[19] = The drug is tested on Clostridium sporogenes strain: ATCC15579 for biotransformation. The drug concentrations were measured before and after a 12-h incubation by liquid-chromatography-coupled mass spectrometry (LC–MS); conditions: 2 µM

SMILES | Bacterial Biotransformation [1] | Bacterial Biotransformation [2] | Bacterial Biotransformation [3] | Bacterial Biotransformation [4] | Bacterial Biotransformation [5] | Bacterial Biotransformation [6] | Bacterial Biotransformation [7] | Bacterial Biotransformation [8] | Bacterial Biotransformation [9] | Bacterial Biotransformation [10] | Bacterial Biotransformation [11] | Bacterial Biotransformation [12] | Bacterial Biotransformation [13] | Bacterial Biotransformation [14] | Bacterial Biotransformation [15] | Bacterial Biotransformation [16] | Bacterial Biotransformation [17] | Bacterial Biotransformation [18] | Bacterial Biotransformation [19]
Fc1ccc([C@@H]2CCNC[C@H]2COc2ccc3c(c2)OCO3)cc1 [PAROXETINE] | Compound NOT metabolized | Compound NOT metabolized | Compound NOT metabolized | Compound NOT metabolized | Compound NOT metabolized | Compound NOT metabolized | Compound NOT metabolized | Compound metabolized | Compound NOT metabolized | Compound NOT metabolized | Compound NOT metabolized | Compound NOT metabolized | Compound NOT metabolized | Compound NOT metabolized | Compound NOT metabolized | Compound NOT metabolized | Compound NOT metabolized | Compound NOT metabolized | –
CC(C)[C@H]1CC[C@H](C(=O)N[C@H](Cc2ccccc2)C(=O)O)CC1 [NATEGLINIDE] | Compound NOT metabolized | Compound NOT metabolized | Compound metabolized | Compound NOT metabolized | Compound metabolized | Compound metabolized | Compound NOT metabolized | Compound NOT metabolized | Compound NOT metabolized | Compound NOT metabolized | Compound NOT metabolized | Compound NOT metabolized | Compound NOT metabolized | Compound NOT metabolized | Compound NOT metabolized | Compound NOT metabolized | – | Compound NOT metabolized | Compound NOT metabolized
CNCC[C@H](Oc1cccc2ccccc12)c1cccs1 [DULOXETINE] | Compound NOT metabolized | Compound metabolized | Compound NOT metabolized | Compound metabolized | Compound metabolized | – | Compound metabolized | Compound metabolized | Compound NOT metabolized | – | Compound NOT metabolized | Compound metabolized | Compound NOT metabolized | – | Compound metabolized | Compound NOT metabolized | Compound NOT metabolized | Compound metabolized | –
COc1ccc2c3c1O[C@H]1C[C@@H](O)C=C[C@@]31CCN(C)C2 [GALANTAMINE] | Compound NOT metabolized | Compound metabolized | Compound metabolized | Compound metabolized | Compound metabolized | Compound NOT metabolized | Compound NOT metabolized | Compound NOT metabolized | Compound metabolized | Compound NOT metabolized | Compound NOT metabolized | Compound NOT metabolized | Compound NOT metabolized | Compound metabolized | Compound metabolized | – | Compound NOT metabolized | Compound NOT metabolized | Compound NOT metabolized
CC(C)(C)NC(=O)[C@H]1CC[C@H]2[C@@H]3CC[C@H]4NC(=O)C=C[C@]4(C)[C@H]3CC[C@]12C [FINASTERIDE] | Compound NOT metabolized | Compound NOT metabolized | Compound metabolized | Compound NOT metabolized | Compound metabolized | Compound metabolized | Compound NOT metabolized | Compound NOT metabolized | Compound NOT metabolized | Compound NOT metabolized | Compound NOT metabolized | Compound NOT metabolized | Compound NOT metabolized | Compound NOT metabolized | Compound NOT metabolized | Compound NOT metabolized | – | Compound metabolized | Compound NOT metabolized
COc1ccc([C@@H]2Sc3ccccc3N(CCN(C)C)C(=O)[C@@H]2OC(C)=O)cc1 [DILTIAZEM] | Compound NOT metabolized | Compound metabolized | Compound NOT metabolized | Compound metabolized | Compound metabolized | Compound NOT metabolized | Compound metabolized | Compound metabolized | Compound NOT metabolized | Compound metabolized | Compound NOT metabolized | Compound NOT metabolized | Compound NOT metabolized | – | Compound NOT metabolized | – | Compound NOT metabolized | Compound metabolized | Compound NOT metabolized
COc1ccc2cc([C@H](C)C(=O)O)ccc2c1 [NAPROXEN] | Compound NOT metabolized | Compound NOT metabolized | Compound metabolized | – | Compound NOT metabolized | Compound NOT metabolized | Compound NOT metabolized | Compound NOT metabolized | Compound NOT metabolized | Compound NOT metabolized | Compound NOT metabolized | Compound NOT metabolized | – | Compound NOT metabolized | – | Compound NOT metabolized | Compound NOT metabolized | Compound NOT metabolized | –

— ChEMBL document CHEMBL5303573, “Mapping human microbiome drug metabolism by gut bacteria and their genes” (Nature, 2019)
